# Experimental data published in ChEMBL document CHEMBL3868635, “Bromomethylthioindole Inspired Carbazole Hybrids as Promising Class of Anti-MRSA Agents” (ACS Med Chem Lett, 2016).
# Assays:
# Staphylococcus aureus [1] = assay: Antibacterial activity against methicillin-resistant Staphylococcus aureus N043 incubated for overnight measured after 20 to 24 hrs by broth microdilution method; type: functional
# Staphylococcus aureus [2] = assay: Antibacterial activity against methicillin-resistant Staphylococcus aureus L166 incubated for overnight measured after 20 to 24 hrs by broth microdilution method; type: functional
# Klebsiella pneumoniae = assay: Antibacterial activity against Klebsiella pneumoneae ATCC 700603 incubated for overnight measured after 20 to 24 hrs by broth microdilution method; type: functional
# Staphylococcus aureus [3] = assay: Antibacterial activity against methicillin-susceptible Staphylococcus aureus M056 incubated for overnight measured after 20 to 24 hrs by broth microdilution method; type: functional
# Staphylococcus aureus [4] = assay: Antibacterial activity against methicillin-resistant Staphylococcus aureus Y069 incubated for overnight measured after 20 to 24 hrs by broth microdilution method; type: functional
# Staphylococcus aureus [5] = assay: Antibacterial activity against methicillin-resistant Staphylococcus aureus C217 incubated for overnight measured after 20 to 24 hrs by broth microdilution method; type: functional
# Enterococcus faecalis [6] = assay: Antibacterial activity against vancomycin-resistant Enterococcus faecalis ATCC 51299 incubated for overnight measured after 20 to 24 hrs by broth microdilution method; type: functional
# Pseudomonas aeruginosa = assay: Antibacterial activity against Pseudomonas aeruginosa ATCC 27853 incubated for overnight measured after 20 to 24 hrs by broth microdilution method; type: functional
# Staphylococcus aureus [7] = assay: Antibacterial activity against vancomycin-intermediate and daptomycin-nonsusceptible methicillin-resistant Staphylococcus aureus Z172 incubated for overnight measured after 20 to 24 hrs by broth microdilution method; type: functional
# Staphylococcus aureus [8] = assay: Antibacterial activity against methicillin-resistant Staphylococcus aureus Z234 incubated for overnight measured after 20 to 24 hrs by broth microdilution method; type: functional
# Escherichia coli = assay: Antibacterial activity against Escherichia coli ATCC 25922 incubated for overnight measured after 20 to 24 hrs by broth microdilution method; type: functional
# Acinetobacter baumannii = assay: Antibacterial activity against Acinetobacter baumannii ATCC 19606 incubated for overnight measured after 20 to 24 hrs by broth microdilution method; type: functional
# Staphylococcus aureus [9] = assay: Antibacterial activity against methicillin-resistant Staphylococcus aureus M013 incubated for overnight measured after 20 to 24 hrs by broth microdilution method; type: functional
# Staphylococcus aureus [10] = assay: Antibacterial activity against methicillin-resistant Staphylococcus aureus 4N216 incubated for overnight measured after 20 to 24 hrs by broth microdilution method; type: functional
# Staphylococcus aureus [11] = assay: Antibacterial activity against methicillin-susceptible Staphylococcus aureus ATCC 29213 incubated for overnight measured after 20 to 24 hrs by broth microdilution method; type: functional
# Staphylococcus aureus [12] = assay: Antibacterial activity against methicillin-resistant Staphylococcus aureus ATCC 43300 incubated for overnight measured after 20 to 24 hrs by broth microdilution method; type: functional
# Mus musculus [13] = assay: Acute toxicity in ICR mouse assessed as increase in survival at 100 mg/kg, iv measured after 2 weeks; type: organism-based; details: in vivo, 336 h
# Mus musculus [14] = assay: Acute toxicity in ICR mouse assessed as increase in body weight at 100 mg/kg, iv measured daily for 2 weeks; type: organism-based; details: in vivo, 336 h
# [15] = Half life in ICR mouse plasma at 10 mg/kg, iv by LC-MS/MS analysis; type: ADME, organism-based
# Staphylococcus aureus [16] = assay: Potency index, ratio of vanomycin MIC to compound MIC against vancomycin-intermediate and daptomycin-nonsusceptible methicillin-resistant Staphylococcus aureus Z172; type: functional
# [17] = Volume of distribution at steady state in ICR mouse plasma at 10 mg/kg, iv by LC-MS/MS analysis; type: ADME, organism-based; details: read-out: Vdss
# [18] = AUC (0 to 24 hrs) in ICR mouse plasma at 10 mg/kg, iv by LC-MS/MS analysis; type: ADME, organism-based; parameters: dose 10 mg/kg, time < 24 hr, route intravenous
# Enterococcus faecalis [19] = assay: Potency index, ratio of […] MIC to compound MIC against vanomycin-resistant Enterococcus faecalis ATCC 51299
# [20] = Clearance in ICR mouse plasma at 10 mg/kg, iv by LC-MS/MS analysis; type: ADME, organism-based
# Staphylococcus aureus [21] = assay: Antibacterial activity against methicillin-resistant Staphylococcus aureus 4N216 infected in ICR mouse assessed as mouse survival rate at 20 mg/kg, iv administered as single dose 30 mins post-infection measured day 7 post infection relative to control; type: functional; details: 4N216, iv
# [22] = Cmax in ICR mouse plasma at 10 mg/kg, iv measured after 20 mins by LC-MS/MS analysis; type: ADME, organism-based; parameters: dose 10 mg/kg, route intravenous
smiles,measurement,setting,value
OC(CNCCc1cccc(Cl)c1)Cn1c2ccc(Cl)cc2c2cc(Cl)ccc21 (stereo not given),MIC,Staphylococcus aureus [1],4 µg/mL
same,MIC,Staphylococcus aureus [2],4 µg/mL
same,MIC,Klebsiella pneumoniae,> 64 µg/mL
same,MIC,Staphylococcus aureus [3],1 µg/mL
same,MIC,Staphylococcus aureus [4],4 µg/mL
same,MIC,Staphylococcus aureus [5],4 µg/mL
same,MIC,Enterococcus faecalis [6],2 µg/mL
same,MIC,Pseudomonas aeruginosa,> 64 µg/mL
same,MIC,Staphylococcus aureus [7],4 µg/mL
same,MIC,Staphylococcus aureus [8],4 µg/mL
same,MIC,Escherichia coli,> 64 µg/mL
same,MIC,Acinetobacter baumannii,> 64 µg/mL
same,MIC,Staphylococcus aureus [9],4 µg/mL
same,MIC,Staphylococcus aureus [10],0.5 to 1 µg/mL
OC(Cn1cncn1)Cn1c2ccc(Br)cc2c2cc(Br)ccc21 (stereo not given),MIC,Staphylococcus aureus [11],16 µg/mL
same,MIC,Staphylococcus aureus [12],16 µg/mL
Oc1ccccc1CCNCC(O)Cn1c2ccc(Br)cc2c2cc(Br)ccc21 (stereo not given),MIC,Staphylococcus aureus [11],1 to 2 µg/mL
same,MIC,Staphylococcus aureus [12],1 to 2 µg/mL
OC(CNc1cc(Cl)nc(Cl)n1)Cn1c2ccc(Br)cc2c2cc(Br)ccc21 (stereo not given),MIC,Staphylococcus aureus [11],> 32 µg/mL
same,MIC,Staphylococcus aureus [12],> 32 µg/mL
OC(CNCCc1c[nH]cn1)Cn1c2ccc(Br)cc2c2cc(Br)ccc21 (stereo not given),MIC,Staphylococcus aureus [11],4 µg/mL
same,MIC,Staphylococcus aureus [12],4 µg/mL
Oc1ccc(CCNCC(O)Cn2c3ccc(Br)cc3c3cc(Br)ccc32)cc1O (stereo not given),MIC,Staphylococcus aureus [11],16 µg/mL
same,MIC,Staphylococcus aureus [12],16 µg/mL
OC(CNCCc1c[nH]c2cc(F)ccc12)Cn1c2ccccc2c2ccccc21 (stereo not given),MIC,Staphylococcus aureus [11],4 µg/mL
same,MIC,Staphylococcus aureus [12],4 µg/mL
OC(CNCCc1cccc(F)c1)Cn1ccc2cc(Br)ccc21 (stereo not given),MIC,Staphylococcus aureus [11],16 to 32 µg/mL
same,MIC,Staphylococcus aureus [12],8 µg/mL
OC(CNCCc1c[nH]c2cc(F)ccc12)Cn1c2ccc(Br)cc2c2cc(Br)ccc21 (stereo not given),MIC,Staphylococcus aureus [1],1 µg/mL
same,MIC,Staphylococcus aureus [11],1 µg/mL
same,MIC,Staphylococcus aureus [2],1 µg/mL
same,MIC,Klebsiella pneumoniae,> 64 µg/mL
same,MIC,Staphylococcus aureus [3],1 to 2 µg/mL
same,MIC,Staphylococcus aureus [4],1 µg/mL
same,MIC,Staphylococcus aureus [5],1 µg/mL
same,MIC,Enterococcus faecalis [6],2 µg/mL
same,MIC,Pseudomonas aeruginosa,> 64 µg/mL
same,Activity,Mus musculus [13],Non-Toxic
same,MIC,Staphylococcus aureus [7],2 µg/mL
same,Activity,Mus musculus [14],Non-Toxic
same,MIC,Staphylococcus aureus [8],1 µg/mL
same,MIC,Escherichia coli,8 to 16 µg/mL
same,MIC,Acinetobacter baumannii,16 µg/mL
same,MIC,Staphylococcus aureus [9],1 µg/mL
same,MIC,Staphylococcus aureus [12],1 µg/mL
same,MIC,Staphylococcus aureus [10],1 µg/mL
O[C@@H](CNCCc1c[nH]c2ccc(Cl)cc12)Cn1c2ccc(Br)cc2c2cc(Br)ccc21,MIC,Staphylococcus aureus [11],1 µg/mL
same,MIC,Staphylococcus aureus [12],1 µg/mL
O[C@@H](CNCCc1c[nH]c2cc(F)ccc12)Cn1c2ccc(Cl)cc2c2cc(Cl)ccc21,MIC,Staphylococcus aureus [11],0.5 to 1 µg/mL
same,MIC,Staphylococcus aureus [12],0.5 to 1 µg/mL
OC(CNCCc1c[nH]c2cc(F)ccc12)Cn1c2ccc(Cl)cc2c2cc(Cl)ccc21 (racemic),MIC,Staphylococcus aureus [1],1 µg/mL
same,MIC,Staphylococcus aureus [11],0.5 to 1 µg/mL
same,MIC,Staphylococcus aureus [2],1 µg/mL
same,MIC,Klebsiella pneumoniae,> 64 µg/mL
same,half-life,[15],10.3 h
same,Ratio,Staphylococcus aureus [16],4 - 16
same,MIC,Staphylococcus aureus [3],1 µg/mL
same,MIC,Staphylococcus aureus [4],1 µg/mL
same,Vd,[17],4.9 L/kg
same,MIC,Staphylococcus aureus [5],1 µg/mL
same,MIC,Enterococcus faecalis [6],1 µg/mL
same,AUC(0-t) at 24 h,[18],20500 ng·h/mL
same,MIC,Pseudomonas aeruginosa,> 64 µg/mL
same,Ratio,Enterococcus faecalis [19],4 - 18
same,clearance,[20],6.9 mL/min/kg
same,Activity,Mus musculus [13],Non-Toxic
same,MIC,Staphylococcus aureus [7],1 µg/mL
same,Activity,Mus musculus [14],Non-Toxic
same,MIC,Staphylococcus aureus [8],1 µg/mL
same,MIC,Escherichia coli,4 µg/mL
same,survival at 20 mg/kg,Staphylococcus aureus [21],75%
same,MIC,Acinetobacter baumannii,8 µg/mL
same,MIC,Staphylococcus aureus [9],1 µg/mL
same,MIC,Staphylococcus aureus [12],0.5 to 1 µg/mL
same,Cmax,[22],29700 ng/mL
same,MIC,Staphylococcus aureus [10],0.5 µg/mL
CN[C@H](CC(C)C)C(=O)N[C@H]1C(=O)N[C@@H](CC(N)=O)C(=O)N[C@H]2C(=O)N[C@H]3C(=O)N[C@H](C(=O)N[C@H](C(=O)O)c4cc(O)cc(O)c4-c4cc3ccc4O)[C@H](O)c3ccc(c(Cl)c3)Oc3cc2cc(c3O[C@@H]2O[C@H](CO)[C@@H](O)[C@H](O)[C@H]2O[C@H]2C[C@](C)(N)[C@H](O)[C@H](C)O2)Oc2ccc(cc2Cl)[C@H]1O [VANCOMYCIN],half-life,[15],0.6 h
same,Vd,[17],0.3 L/kg
same,MIC,Enterococcus faecalis [6],8 to 16 µg/mL
same,AUC(0-t) at 24 h,[18],13700 ng·h/mL
same,clearance,[20],11.7 mL/min/kg
same,survival at 20 mg/kg,Staphylococcus aureus [21],100%
same,MIC,Staphylococcus aureus [9],≤ 0.5 µg/mL
same,Cmax,[22],58500 ng/mL
O[C@H](CNCCc1c[nH]c2ccc(Cl)cc12)Cn1c2ccc(Br)cc2c2cc(Br)ccc21,MIC,Staphylococcus aureus [11],1 µg/mL
same,MIC,Staphylococcus aureus [12],1 µg/mL
OC(CNCCc1cccc(F)c1)Cn1c2ccc(Br)cc2c2cc(Br)ccc21 (stereo not given),MIC,Staphylococcus aureus [11],1 to 2 µg/mL
same,MIC,Staphylococcus aureus [12],1 to 2 µg/mL
OC(CNc1nc(Cl)nc2ccccc12)Cn1c2ccc(Br)cc2c2cc(Br)ccc21 (stereo not given),MIC,Staphylococcus aureus [11],> 32 µg/mL
same,MIC,Staphylococcus aureus [12],> 32 µg/mL
OC(CNc1ccc(C(F)(F)F)cc1)Cn1c2ccc(Cl)cc2c2cc(Cl)ccc21 (stereo not given),MIC,Staphylococcus aureus [1],1 µg/mL
same,MIC,Staphylococcus aureus [2],1 µg/mL
same,MIC,Klebsiella pneumoniae,> 64 µg/mL
same,MIC,Staphylococcus aureus [3],1 µg/mL
same,MIC,Staphylococcus aureus [4],1 µg/mL
same,MIC,Staphylococcus aureus [5],1 µg/mL
same,MIC,Enterococcus faecalis [6],2 µg/mL
same,MIC,Pseudomonas aeruginosa,> 64 µg/mL
same,MIC,Staphylococcus aureus [7],1 µg/mL
same,MIC,Staphylococcus aureus [8],1 µg/mL
same,MIC,Escherichia coli,> 64 µg/mL
same,MIC,Acinetobacter baumannii,> 64 µg/mL
same,MIC,Staphylococcus aureus [9],1 µg/mL
same,MIC,Staphylococcus aureus [10],1 µg/mL
OC(CNCc1c[nH]c2cc(F)ccc12)Cn1c2ccc(Br)cc2c2cc(Br)ccc21 (stereo not given),MIC,Staphylococcus aureus [11],2 µg/mL
same,MIC,Staphylococcus aureus [12],2 µg/mL
O[C@H](CNCCc1c[nH]c2cc(F)ccc12)Cn1c2ccc(Cl)cc2c2cc(Cl)ccc21,MIC,Staphylococcus aureus [11],0.5 to 1 µg/mL
same,MIC,Staphylococcus aureus [12],0.5 to 1 µg/mL
OC(CNCCc1c[nH]c2ccc(Cl)cc12)Cn1c2ccc(Br)cc2c2cc(Br)ccc21 (racemic),MIC,Staphylococcus aureus [1],1 µg/mL
same,MIC,Staphylococcus aureus [11],1 µg/mL
same,MIC,Staphylococcus aureus [2],1 µg/mL
same,MIC,Klebsiella pneumoniae,> 64 µg/mL
same,MIC,Staphylococcus aureus [3],1 µg/mL
same,MIC,Staphylococcus aureus [4],1 µg/mL
same,MIC,Staphylococcus aureus [5],1 µg/mL
same,MIC,Enterococcus faecalis [6],1 µg/mL
same,MIC,Pseudomonas aeruginosa,> 64 µg/mL
same,Ratio,Enterococcus faecalis [19],4 - 18
same,MIC,Staphylococcus aureus [7],2 µg/mL
same,MIC,Staphylococcus aureus [8],1 µg/mL
same,MIC,Escherichia coli,> 64 µg/mL
same,MIC,Acinetobacter baumannii,> 64 µg/mL
same,MIC,Staphylococcus aureus [9],1 µg/mL
same,MIC,Staphylococcus aureus [12],1 µg/mL
same,MIC,Staphylococcus aureus [10],1 µg/mL
